The source of these data is patent US20110104805A1, “Pluripotent Stem Cells” (CENTOCOR ORTHO BIOTECH INC., priority 2009, published 2011).

For assay [1], the system named is AFD1 cells. Kind of assay: qRT-PCR gene expression after two passages on surface modified plate 4 with Rho kinase inhibitor. The class given is cell-based. The settings on record: AFD1 passaged twice on modified surface 4 versus control plates. On the procedure: Cells were passaged twice on surface modified plate 4 in the presence of either Y-27632 or H1152-glycyl and were tested for the expression of genes associated with pluripotency by qRT-PCR (FIG. 12). Expression of genes associated with and required for pluripotency (OCT4, NANOG, SOX2, TERT, and CRIPTO/TDGF) was maintained in AFD1 cells grown on modified surface 4 versus cells grown on control plates. […] This may have been due to increased expression of NANOG, which inhibits differentiation by suppressing expression of extra-embryonic ectoderm or trophoblast associated genes. Additionally, this decrease in expression of extra-embryonic ectoderm or trophoblast associated genes could occur through differential adhesion and proliferation of cells more pluripotent, and less differentiated, on modified surface 4 versus control plates.

Assay [2] has as its system AFD1 cells. Kind of assay: Attachment / plating efficiency on surface modified plate 4 without feeder cells or adlayer. The settings on record: surface modified plate 4, MEF conditioned media. Type of assay: cell-based. As to the method: The pluripotent stem cell line AFD1, was maintained in MEF conditioned media on Nunclon Delta™ plates treated with a 1:30 dilution of growth factor reduced MATRIGEL™ prior to study. Cells were dissociated from the surface for passage by 1 mg/ml dispase dissociation. AFD1 cells were then seeded onto untreated wells of surface modified plate 4 (6-well format). In parallel, AFD1 cells were also plated onto Nunclon Delta™ plates treated with 1:30 dilution of growth factor reduced MATRIGEL™ to provide as positive controls. In all treatments cells were maintained in MEF conditioned media. AFD1 cells seeded onto surface modified plate 4 did attach, however the attachment efficiency was much lower than on control plates (FIG. 11). […] Cells were thereafter maintained in a constant 10 μM Y-27632 concentration or a reduced 1 μM concentration of H1152-glycyl, respectively, with daily media change.

For `Cc1cncc2cccc(S(=O)(=O)N3CCCN(C(=O)CN)C[C@@H]3C)c12.Cl.Cl` [Clone H1152-glycyl, (S)-(+)-4-Glycyl-2-methyl-1-[(4-methyl-5-isoquinolinyl)sulfonyl]hexahydro-1H-1,4-diazepine dihydrochloride], in the assay on AFD1 cells [1], the “Expression of genes associated with and required for pluripotency (OCT4, NANOG, SOX2, TERT, and CRIPTO/TDGF)” value was “maintained”; the “relative expression of AFP, HAND2, and GATA2 (spontaneous differentiation genes)” value is on record as “decreased significantly”. For the same compound, the “plating efficiency of the cells” value in the assay on AFD1 cells [2] (3 μM for the first 24 hours in culture) is on record as “significantly increased”.
With `C[C@@H](N)[C@H]1CC[C@H](C(=O)Nc2ccncc2)CC1` [Clone Y-27632], in the assay on AFD1 cells [1], the “Expression of genes associated with and required for pluripotency (OCT4, NANOG, SOX2, TERT, and CRIPTO/TDGF)” value is reported as “maintained”; the “relative expression of AFP, HAND2, and GATA2 (spontaneous differentiation genes)” value was “decreased significantly”. Further, the “plating efficiency of the cells” value in the assay on AFD1 cells [2] (10 μM for the first 24 hours in culture) is on record as “significantly increased”.
